1 compound from US20220079931A1, “ESTROGEN RECEPTOR PROTEIN DEGRADERS” (THE REGENTS OF THE UNIVERSITY OF MICHIGAN, priority 2019, published 2022) can be followed below.

In test [1] the target is T1, ERα (Homo sapiens, UniProt P03372).
T1 sequence (P03372 1-595): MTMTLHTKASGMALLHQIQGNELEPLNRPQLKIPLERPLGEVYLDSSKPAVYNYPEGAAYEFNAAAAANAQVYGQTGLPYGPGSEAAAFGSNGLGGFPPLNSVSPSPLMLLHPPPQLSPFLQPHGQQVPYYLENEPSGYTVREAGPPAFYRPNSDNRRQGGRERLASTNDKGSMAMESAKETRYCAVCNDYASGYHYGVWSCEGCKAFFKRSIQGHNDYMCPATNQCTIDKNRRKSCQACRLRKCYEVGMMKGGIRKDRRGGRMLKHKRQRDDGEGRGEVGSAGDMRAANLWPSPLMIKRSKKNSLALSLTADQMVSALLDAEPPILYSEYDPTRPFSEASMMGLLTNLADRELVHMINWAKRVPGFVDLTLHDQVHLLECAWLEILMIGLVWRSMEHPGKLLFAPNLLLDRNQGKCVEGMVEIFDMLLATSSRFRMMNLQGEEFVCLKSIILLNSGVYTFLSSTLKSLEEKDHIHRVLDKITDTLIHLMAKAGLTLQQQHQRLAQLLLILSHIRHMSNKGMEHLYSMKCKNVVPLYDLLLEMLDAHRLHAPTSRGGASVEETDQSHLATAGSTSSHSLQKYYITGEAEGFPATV
Briefly: ER degradation by Western blotting in T47D cells. It counts as cell-based. Details: Dmax: dose or concentration left out as unconfirmed. Here is the method:
FIG. 8 is an image showing the ERα degradation dose-response Western blotting for compound 32 at 4 h in T47D cells. […] Cell Culture. Human breast cancer cell lines MCF-7 (ATCC® HTB-22TM) and T47D (ATCC® HTB-133TM) were purchased from the American Type Culture Collection (ATCC), Manassas, Va., and maintained and cultured in Dulbecco's Modified Eagle's medium (DMEM) containing 10% fetal bovine serum, 1 unit/ml of penicillin and 1 μg/ml of streptomycin. Cells with 3-8 passages after purchase were used in experiments as indicated. Western Blot Analysis. Western blot analysis was performed essentially as described previously (Hu et al, 2015, PMID: 26358219). Cells treated with indicated compounds were lysed in Radioimmunoprecipitation Assay Protein Lysis and Extraction Buffer (25 mmol/L Tris.HCl, pH 7.6, 150 mmol/L NaCl, 1% Nonidet P-40, 1% sodium deoxycholate, and 0.1% sodium dodecyl sulfate) containing proteinase inhibitor cocktail (Roche Diagnostics, Mannheim, Germany). After determination of protein concentration by BCA assay (Fisher Scientific, Pittsburgh, Pa.), equal amounts of total protein were electrophoresed through 10% SDS-polyacrylamide gels. The separated protein bands were transferred onto PVDF membranes (GE Healthcare Life Sciences, Marlborough, Mass.) and blotted against different antibodies, as indicated. The human estrogen receptor a antibodies (AB16460) were purchased from Abeam, Inc., Cambridge, Mass. The membranes were reblotted with horseradish peroxidase-conjugated anti-glyceraldehyde-3-phosphate dehydrogenase antibody ([…]) from Sigma-Aldrich Corporation, St. Louis, Mo. The blots were scanned and the band intensities were quantified using GelQuant.NET software as described in biochemlabsolutions.com. The relative mean intensity of target proteins was expressed after normalization to the intensity of glyceraldehyde-3-phosphate dehydrogenase bands from individual repeats.

The subject of test [2] is primary human mammary epithelial cells. Briefly: Cell proliferation in primary human mammary epithelial cells. It counts as cell-based. On the procedure: (§1) Cell Growth Assay. Cells were seeded at 1500/well in 96 well plates overnight. One day after seeding, they were treated with indicated doses of compounds. The growth of the cells was evaluated by colorimetric WST-8 assay 4 days after the compound treatment following the instructions of the manufacturer, Cayman Chemical, Ann Arbor, Mich.
(§2) Fulvestrant achieves an Imax value of 43.8%. […] RAD1901, a previously reported SERD molecule^18, achieves an Imax value of 25.7%.

Test [3] relates to MDA-MB-231. Briefly: Cell proliferation in triple-negative breast cancer cells. To be noted: MDA-MB-231 triple-negative breast cancer cells. It counts as cell-based, human. Here is the method:
as §1, §2

Test [4] concerns MCF-7 cells. Briefly: Crystal violet staining experiment in MCF-7 cells. To be noted: 10 nM, 100 nM and 300 nM, versus raloxifene and fulvestrant.

Some results are limits rather than exact numbers.

What is called DC50 is the concentration giving 50% degradation.

Regarding `CCN(CCCCCOCC(=O)N[C@H](C(=O)N1C[C@H](O)C[C@H]1C(=O)N[C@@H](C)c1ccc(-c2scnc2C)cc1)C(C)(C)C)CCOc1ccc(C(=O)c2c(-c3ccc(O)cc3)sc3cc(O)ccc23)cc1` [compound 32, (2S,4R)-1-((S)-2-(2-((5-(Ethyl(2-(4-(6-hydroxy-2-(4-hydroxyphenyl)benzo[b]thiophene-3-carbonyl)phenoxy)ethyl)amino)pentyl)oxy)acetamido)-3,3-dimethylbutanoyl)-4-hydroxy-N—((S)-1-(4-(4-methylthiazol-5-yl)phenyl)ethyl)pyrrolidine-2-carboxamide], the hook effect entry in test [1] (T47D cells, 1 μM) was “demonstrates a hook effect”. For the same compound, in test [1] (T47D cells, 4 h), the DC50 was 0.43 nM. For the same compound, in test [1] (T47D, read-out: maximum degradation), the Dmax was over 95%. Moreover, the cell proliferation inhibition entry in test [2] and in test [3] was “does not exhibit the cell proliferation inhibition effects” throughout. Moreover, the “reduction of cell proliferation (crystal violet staining)” value in test [4] was “reduced cell proliferation more significantly than raloxifene or fulvestrant”.
